Test results: patent US6022307A, “Substituted dibenzothiophenes having antiangiogenic activity” (American Cyanamid Company, priority 1999, dated 2000)
Where a name gives a salt, the structure may show the parent alone. Blank lines part the entries; values can stand above or below the compound they belong to.

Columns and labels:
[1] = test system: VEGF 165-induced vascular permeability; experiment: Inhibition of Vascular Permeability Assay (Miles Assay); format: in vivo, BALB/c female mice; settings: 100 mg/kg, PO
Procedure: Inhibition of Vascular Permeability Assay (Miles Assay) This assay was performed using BALB/c female mice (Charles River, Wilmington, Mass.). Both sides of the animals were shaved between 24 and 48 hours before the start of the assay. There were 10 animals per experimental group. […] One half hour later the animals were sacrificed by CO2 inhalation. […] Data was statistically analyzed via Student-t-test. A p-value (p≤0.05) indicates a statistically significant difference between the area of vascular permeability of the vehicle control verses the experimental group. Data was statistically analyzed via Student-t-test of Log Relative Area of Permiability. A p-value (p≤0.05) indicates a statistically significant reduction in permeability of Treated Group, compared to Placebo Control.

[2] = test system: KDR
Procedure: Inhibition of Binding of VEGF 165 to KDR & Flt-1 Receptors as Measured by SPA Assay
Preparation of conditioned media containing the KDR-Fc soluble VEGF receptor.:
Human 293KDR2 cells, which secrete a soluble KDR-Fc fusion protein, were grown in Dulbecco's Modified Eagle Medium supplemented with 10% fetal calf serum, 2 mM glutamine, 10 units/ml penicillin G sulfate, 10 μg/ml streptomycin sulfate and 175 μg/ml geneticin (G418) sulfate. Cells were plated at a density of 10^6 cells/100 mm dish and incubated at 37° C. in a humidified atmosphere containing 95% air and 5% CO2. After 10 days, conditioned medium was collected and centrifuged at 15,000 rpm for 15 min to remove dead cells. A total of 0.1 volume of 1.15% gelatin and 0.02 volume of 1M HEPES buffer (pH 8) was added. Leupeptin and pepstatin A were added to 1 μg/ml each.
Preparation of ^125 I-labelled VEGF ligand:
Recombinant human ^125 T-labelled VEGF 165 was purchased from Amersham (3,800 cpm/fmol). ^125,-labelled VEGF was diluted in DMEM supplemented with gelatin (0.15%) and HEPES buffer (20 mM) to a final concentration of 40,000 cpm/25 μl.
Preparation of SPA beads:
SPA PVT antibody-binding beads were purchased from Amersham. Each bottle of SPA beads (500 mg) was reconstituted in 25 ml of DMEM supplemented with gelatin (0.15%) and HEPES buffer (20 mM). The bottle contents were well mixed (15 min with a stir bar at room temperature).
SPA assays were performed in flat-bottom polystyrene 96 well microtitre plates.
(a) Pipette 50 μl of SPA beads to well.
(b) Pipette 25 μl of conditioned medium to well.
(d) Pipette 25 μl of ^125 J-VEGF 165 to well.
The appropriate control wells were set up to measure non-specific binding, solvent effect, etc. The assays were run in duplicate or triplicate wells. Plates were sealed and incubate at room temperature without shaking for 5 to 20 hours. Plates were then counted in a Packard TopCount microtitre plate liquid scintillation counter.
A typical assay gave 3,000 to 6,000 cpm bound. Background binding (measured in the presence of 100-fold molar excess of unlabelled VEGF 165) was typically 200 to 300 cpm bound. Compounds were tested at 30, 10, 3, 1, 0.3 and 0.1 μg/ml in DMSO. […] Half maximal binding was determined by the following equation:
s=maximal cpm bound in the absence of compound.
The IC50 values were determined graphically by the following procedure:
A graph was drawn plotting compound concentration (x-axis) versus cpm bound (y-axis).
The half maximal binding was calculated using the equation above.
A horizontal line (LINE A) was drawn which intersects the y-axis at the half maximal binding value.
A vertical line (LINE B) was drawn through the point where LINE A intersects the inhibition curve.
The point where LINE B intersects the x-axis was extrapolated from the graph to give the IC50 value.

[3] = test system: corneal neovascularization; experiment: Corneal Neovascularization Model; format: in vivo, mice; settings: 100 mg/kg, PO, days 1-10
Procedure: Corneal Neovascularization Model
The sustained release preparations of angiogenic agents (ELVAX pellet) were prepared by solvent casting. […] The solvent was then evaporated, leaving the angiogenic agent in the polymeric matrix
Mice were anesthetized using a 1-1.5 ml/kg solution containing a mixture of 70% ketamine hydrochloride (100 mg/ml) and 30% xylazine (20 mg/ml). Using sterile surgical technique, an ELVAX pellet containing either basic FGF (100 ng) or VEGF (400 ng) was implanted into a previously dissected intrastromal corneal pocket 0.5 mm from the corneoscleral limbus. Following implantation the implantation site margins were reapposed and the eyes were treated with topical antibiotic ointment (bacitracin/neomycin/polymixin). On various days (between postoperative days 4 and 18) the extent of neovascularization was measured.
Neovascularization was monitored by measurements of new vessel growth within the previously avascular cornea. This parameter was obtained by measuring with calipers under microscopic magnification the length of the base of the neovascular bed at the limbus. The area of neovascularization,which is typically triangular, was calculated by dividing the product of the length of the vessel and the base length by two. Data was statistically analyzed via Student-t-test of Log Relative Reduction of Neovascularization. A p-value (p≤0.05) indicates a statistically significant reduction in neovascularization of Treated Group, compared to Placebo Control.

[4] = test system: Human Epidermoid Tumors (A431); format: in vivo, human tumor in BALB/c nu/nu female mice; settings: 50 mg/kg, IP, day 28
Procedure: In Vivo Inhibition of Growth of Human Epidermoid Tumors (A431)
In vivo testing was performed using BALB/c nu/nu female mice (Charles River, Wilmington, Mass.). The human epidermoid carcinoma cells A-431 (American Type Culture Collection, Rockville, Md. # CRL-155) were grown in vitro and 5×10^6 cells were injected subcutaneously (SC) into mice. When tumors attained a mass of between 100 and 150 mg, the mice were randomized into treatment groups (Day Zero). Mice were treated either intraperitoneally (IP) or orally (PO) once a day on days 1 through 20 post staging with doses of either 100 or 50 mg/kg/dose in 0.2% Klucel. Tumor mass was determined every 7 days [(length×width^2)/2] for up to 42 days post staging. Relative tumor growth (mean tumor mass on day 7, 14, 21, 28, 35 and 42 divided by the mean tumor mass on day zero) was determined for each treatment group. The %T/C (Tumor/Control) was determined by dividing the relative tumor growth of the treated group by the relative tumor growth of the placebo group and multiplying by 100. Data was statistically analyzed via Student-t-test of Log Relative Tumor Growth. A p-value (p≤0.05) indicates a statistically significant reduction in Relative Tumor Growth of Treated Group, compared to Placebo Control. A compound is considered to be active if the %T/C is found to be <60% and a p-value of less than or equal to 0.05 is achieved.

SMILES: COc1ccc(C=CC(=O)Nc2cc3sc4cc(NC(=O)C=Cc5ccc(OC)c(OC)c5Cl)c(C(=O)[O-])cc4c3cc2C(=O)[O-])c(Cl)c1OC.[Na+].[Na+]
Inhibition of Corneal Neovascularization ([3]; Day 4): 11%
Inhibition of Corneal Neovascularization ([3]; Day 8): 24%
Inhibition of Corneal Neovascularization ([3]; Day 11): 29%
Inhibition of Corneal Neovascularization ([3]; Day 13): 37%

SMILES: O=C(Nc1cc2sc3cc(NC(=O)c4ccc5c(c4)C(=O)c4ccccc4C5=O)c(C(=O)O)cc3c2cc1C(=O)O)c1ccc2c(c1)C(=O)c1ccccc1C2=O.[Na].[Na] [Example 4, 3,7-Bis{[(9,10-dihydro-9,10-dioxo-2-anthracenyl)carbonyl]-amino}dibenzothiophene-2,8-dicarboxylic acid, disodium]
Inhibition of Corneal Neovascularization ([3]; Day 4): 55%
Inhibition of Corneal Neovascularization ([3]; Day 8): 38%
Inhibition of Corneal Neovascularization ([3]; Day 11): 40%
Inhibition of Corneal Neovascularization ([3]; Day 13): 23%
IC50 [2]: 0.2 µg/mL

SMILES: O=C(Nc1cc2sc3cc(NC(=O)c4cc5ccccc5s4)c(C(=O)O)cc3c2cc1C(=O)O)c1cc2ccccc2s1 [Example 2, 3,7-Bis-r(benzo[b]thiophene-2-carbonyl)amino]dibenzothiophene-2,8-dicarboxylic acid, disodium salt]
% Control ([1]; 4 hr prior to VEGF): 57%
Lesion Area (measured area of vascular permeability) ([1]; 4 hr prior to VEGF): 34.0 mm^2
IC50 [2]: 1.5 µg/mL

SMILES: CCOP(=O)(O)c1cc2c(cc1NC(=O)c1cc3ccccc3s1)S(=O)(=O)c1cc(NC(=O)c3cc4ccccc4s3)c(P(=O)(O)OCC)cc1-2 [Example 23a, [3,7-Bis[(benzo[b]thiophene-2-carbonyl)amino-8-(ethoxyhydroxyphosphoryl)-5,5-dioxo-5H-5λ^6-dibenzothiophen-2-yl]phosphonic acid monoethyl ester, disodium salt]
Inhibition of Corneal Neovascularization ([3]; Day 4): 70%
Inhibition of Corneal Neovascularization ([3]; Day 8): 55%
Inhibition of Corneal Neovascularization ([3]; Day 11): 46%
Inhibition of Corneal Neovascularization ([3]; Day 13): 50%
IC50 [2]: 1.65 µg/mL

SMILES: COc1ccc(C=CC(=O)Nc2cc3sc4cc(NC(=O)C=Cc5ccc(OC)c(OC)c5Cl)c(C(=O)[O-])cc4c3cc2C(=O)[O-])c(Cl)c1OC.[Na+].[Na+] [disodium salt]
IC50 [2]: 3 µg/mL

SMILES: O=C(Nc1cc2sc3cc(Cl)c(C(=O)O)cc3c2cc1C(=O)O)c1ccc2cc3ccccc3cc2c1 [Example 15, 3-[(2-Anthracenylcarbonyl)amino]-7-chlorodibenzothiophene-2,8-dicarboxylic acid, disodium salt]
IC50 [2]: 1.6 µg/mL

SMILES: CCOP(=O)(O)c1cc2c(cc1NC(=O)c1ccc3c(c1)C(=O)c1ccccc1C3=O)S(=O)(=O)c1cc(NC(=O)c3ccc4c(c3)C(=O)c3ccccc3C4=O)c(P(=O)(O)OCC)cc1-2 [Example 21, [3,7-Bis-[9,10-dioxo-9,10-dihydroanthracene-2-carbonyl)amino]-8-(ethoxyhydroxy-phosphoryl)-5,5-dioxo-5H-5^6-dibenzothiophen-2-yl]phosphonic acid monoethyl ester, disodium salt]
IC50 [2]: 0.2 µg/mL

SMILES: N#Cc1ccc(/C=C/C(=O)Nc2cc3c(cc2S(=O)(=O)O)-c2cc(S(=O)(=O)O)c(NC(=O)/C=C/c4ccc(C#N)cc4)cc2S3(=O)=O)cc1 [Example 32, 3,7-Bis-[3-(4-cyanophenyl)-acryloylamino]-5,5-dioxo-5H-5^6-dibenzothiophene-2,8-disulfonic acid, disodium salt]
IC50 [2]: 0.8 µg/mL

The next lines start with results.

IC50 [2]: 0.5 µg/mL
SMILES: O=Cc1ccc(/C=C/C(=O)Nc2cc3c(cc2S(=O)(=O)O)-c2cc(S(=O)(=O)O)c(NC(=O)/C=C/c4ccc(C=O)cc4)cc2S3(=O)=O)cc1 [Example 29, 3,7-Bis-[3-(4-formylphenyl)-acryloylamino]-5,5-dioxo-5H-5^6-dibenzothiophene-2,8-disulfonic acid, disodium salt]
% Control ([1]; 4 hr prior to VEGF): 81%
Lesion Area (measured area of vascular permeability) ([1]; 4 hr prior to VEGF): 76.5 mm^2

IC50 [2]: 4.9 µg/mL
SMILES: COc1ccc(/C=C/C(=O)Nc2cc3sc4cc(NC(=O)/C=C/c5ccc(OC)cc5)c(C(=O)O)cc4c3cc2C(=O)O)cc1 [Example 12, 3,7-Bis{[3-(4-methoxyphenyl)acryloylamino]-dibenzothiophene-2,8-dicarboxylic Acid, disodium salt]
Inhibition of Corneal Neovascularization ([3]; Day 4): 41%
Inhibition of Corneal Neovascularization ([3]; Day 8): 41%
Inhibition of Corneal Neovascularization ([3]; Day 11): 34%
Inhibition of Corneal Neovascularization ([3]; Day 13): 8%

IC50 [2]: 2 µg/mL
SMILES: CCCc1c(C(=O)Nc2cc3c(cc2S(=O)(=O)O)-c2cc(S(=O)(=O)O)c(NC(=O)c4cnn(-c5ccc(Cl)cc5)c4CCC)cc2S3(=O)=O)cnn1-c1ccc(Cl)cc1 [Example 45, 3,7-Bis-{[1-(4-chlorophenyl)-5-propyl-1H-pyrazole-4-carbonyl]amino}5,5-dioxo-5H-5^6-dibenzothiophene-2,8-disulfonic acid, disodium salt]
% T/C (Day) [4]: 50%

IC50 [2]: 0.8 µg/mL
SMILES: O=C(C=Cc1ccc(-c2ccccc2)cc1)Nc1cc2c(cc1S(=O)(=O)O)-c1cc(S(=O)(=O)O)c(NC(=O)C=Cc3ccc(-c4ccccc4)cc3)cc1S2(=O)=O [Example 24, 3,7-Bis-[3-(4-phenylphenyl)acryloylamino]-5,5-dioxo-5H-5λ^6-dibenzothiophene-2,8-disulfonic acid, disodium salt]
% Control ([1]; 1 hr prior to VEGF): 55%
Lesion Area (measured area of vascular permeability) ([1]; 1 hr prior to VEGF): 25.8 mm^2
% Control ([1]; 2 hr prior to VEGF): 80%
Lesion Area (measured area of vascular permeability) ([1]; 2 hr prior to VEGF): 37.8 mm^2
% Control ([1]; 4 hr prior to VEGF): 49%
Lesion Area (measured area of vascular permeability) ([1]; 4 hr prior to VEGF): 23.1 mm^2

IC50 [2]: 0.5 µg/mL
SMILES: COc1ccc2cc(C(=O)Nc3cc4c(cc3S(=O)(=O)O)-c3cc(S(=O)(=O)O)c(NC(=O)c5cc6ccc(OC)cc6oc5=O)cc3S4(=O)=O)c(=O)oc2c1 [Example 47, 3,7-Bis-[(7-methoxy-2-oxo-benzopyran-3-yl)-carbonylamino]-5,5-dioxo-5H-5^6-dibenzothiophene-2,8-disulfonic acid, disodium salt]
% Control ([1]; 4 hr prior to VEGF): 71%
Lesion Area (measured area of vascular permeability) ([1]; 4 hr prior to VEGF): 32.8 mm^2

IC50 [2]: 0.6 µg/mL
SMILES: O=C(Nc1cc2c(cc1S(=O)(=O)O)-c1cc(S(=O)(=O)O)c(NC(=O)c3cc4ccccc4o3)cc1S2(=O)=O)c1cc2ccccc2o1 [Example 42, 3,7-Bis[(benzo[b]furan-2-carbonyl)amino]-5,5-dioxo-5H-5^6-dibenzothiophene-2,8-disulfonic acid, disodium salt]
% Control ([1]; 2 hr prior to VEGF): 74%
Lesion Area (measured area of vascular permeability) ([1]; 2 hr prior to VEGF): 40.0 mm^2
Lesion Area (measured area of vascular permeability) ([1]; 2 hr prior to VEGF, disodium salt): 33.5 mm^2
% Control ([1]; 4 hr prior to VEGF): 69%
Lesion Area (measured area of vascular permeability) ([1]; 4 hr prior to VEGF): 31.1 mm^2

IC50 [2]: 5 µg/mL
SMILES: COc1ccc(C(=O)Nc2cc3c(cc2S(=O)(=O)O)-c2cc(S(=O)(=O)O)c(NC(=O)c4ccc(OC)cc4OC)cc2S3(=O)=O)c(OC)c1 [Example 51, 3,7-Bis-(2,4-dimethoxybenzoyl-amino)-5,5-dioxo-5H-5^6-dibenzothiophene-2,8-disulfonic acid disodium salt]

IC50 [2]: 5 µg/mL
SMILES: O=C(/C=C/c1cccc(O)c1)Nc1cc2c(cc1S(=O)(=O)O)-c1cc(S(=O)(=O)O)c(NC(=O)/C=C/c3cccc(O)c3)cc1S2(=O)=O [Example 31, 3,7-Bis-[(E)-3-(3-hydroxy-phenyl)acryloylamino]-5,5-dioxo-5H-5^6-dibenzothiophene-2,8-disulfonic acid, disodium]

IC50 [2]: 5 µg/mL
SMILES: O=C(Nc1cc2c(cc1S(=O)(=O)O)-c1cc(S(=O)(=O)O)c(NC(=O)c3cnn(-c4ccccc4)n3)cc1S2(=O)=O)c1cnn(-c2ccccc2)n1 [Example 46, 5,5-Dioxo-3,7-bis-[(2-phenyl-2H-[1,2,3]triazole-4-carbonyl)amino]-5H-5^6-dibenzothiophene-2,8-disulfonic acid, disodium salt]
